According to US7101878B1 (Agouron Pharmaceuticals, Inc., priority 1998, dated 2006):
Where two headings read alike, the source gives them in different places.

Tests used:
human GnRH receptor = molecular target: T1, human GnRH receptor (Homo sapiens, UniProt P30968); assay: Radioligand binding, 125I-GnRH-A displacement, membranes of HEK 293 cells with human GnRH receptor
T1 construct: expressed in transfected cells; host or cells: HEK 293 (hGnRH-R/293, from Dr. Stuart Sealfon)
T1 sequence (P30968 1-328): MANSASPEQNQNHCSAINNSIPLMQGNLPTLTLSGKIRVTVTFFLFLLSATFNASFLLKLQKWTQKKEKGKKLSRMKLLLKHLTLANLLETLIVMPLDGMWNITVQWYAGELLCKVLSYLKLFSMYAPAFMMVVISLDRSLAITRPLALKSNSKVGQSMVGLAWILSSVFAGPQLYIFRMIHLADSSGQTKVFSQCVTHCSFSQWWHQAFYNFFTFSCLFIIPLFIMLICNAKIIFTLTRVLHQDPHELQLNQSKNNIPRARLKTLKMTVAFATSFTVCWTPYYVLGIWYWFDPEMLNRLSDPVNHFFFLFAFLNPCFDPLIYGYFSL
Summary of the method: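 Bound tracer was separated by filtration through polyethyleneimine-soaked GF/C filters and counted by liquid scintillation. IC50 from curve fitting; other species were tested under the same conditions.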

bovine GnRH receptor = molecular target: T2, bovine GnRH receptor (Bos taurus, UniProt P32236); assay: Radioligand binding, 125I-GnRH-A, bovine pituitary membranes
T2 construct: membranes were prepared from bovine pituitary; from tissue; host or cells: bovine pituitary
T2 sequence (P32236 1-328): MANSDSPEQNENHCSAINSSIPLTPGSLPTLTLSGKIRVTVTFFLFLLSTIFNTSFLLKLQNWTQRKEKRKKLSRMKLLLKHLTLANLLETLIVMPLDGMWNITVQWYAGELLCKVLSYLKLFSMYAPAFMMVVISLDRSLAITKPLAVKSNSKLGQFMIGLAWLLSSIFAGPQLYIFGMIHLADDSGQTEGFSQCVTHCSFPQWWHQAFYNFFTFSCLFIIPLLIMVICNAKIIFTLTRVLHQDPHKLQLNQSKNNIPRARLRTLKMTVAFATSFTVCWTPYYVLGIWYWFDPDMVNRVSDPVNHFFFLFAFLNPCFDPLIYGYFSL
Procedure: All compounds were diluted in 1% DMSO (final assay concentration) in binding assay buffer. […] Reactions were terminated by rapid filtration onto 96-well Packard GF/C filters soaked in 0.1% polyethyleneimine. Filters were washed three times with PBS buffer, dried and counted on a Packard Topcount by liquid scintillation counting.
Assay conditions were identical for assessing compound activities at other species. […] IC50 values for control peptides and test compounds were calculated utilizing GraphPad Prism™ software.
The reaction mixture was vortexed and incubated for 1 min at room temperature. After one min, the mixture was vortexed and allowed to incubate for an additional minute. 2 ml of 0.5 M acetic acid/1% BSA was added to the reaction tube and the mixture was added to a C18 Sep-Pak cartridge. The cartridge was washed with subsequent washes of 5 ml H2O and 5 ml 0.5M acetic acid and then eluted with 5×1 ml of 60% CH3CN/40% 0.5M acetic acid. The eluate was diluted with 3× volume of HPLC buffer A (0.1% TFA in H2O) and loaded onto a C18 column. […] The radioactive fractions (750 ed/fraction) are collected into clean polypropylene tubes containing 100 μl of 10% BSA. Fractions were assessed for biological activity by radioligand binding.

mouse GnRH receptor = molecular target: T3, mouse GnRH receptor (Mus musculus, UniProt Q01776); assay: Radioligand binding, 125I-GnRH-A, 293 cells expressing mouse GnRH receptors
T3 construct: expressed in transfected cells; host or cells: 293 cells
T3 sequence (Q01776 1-327): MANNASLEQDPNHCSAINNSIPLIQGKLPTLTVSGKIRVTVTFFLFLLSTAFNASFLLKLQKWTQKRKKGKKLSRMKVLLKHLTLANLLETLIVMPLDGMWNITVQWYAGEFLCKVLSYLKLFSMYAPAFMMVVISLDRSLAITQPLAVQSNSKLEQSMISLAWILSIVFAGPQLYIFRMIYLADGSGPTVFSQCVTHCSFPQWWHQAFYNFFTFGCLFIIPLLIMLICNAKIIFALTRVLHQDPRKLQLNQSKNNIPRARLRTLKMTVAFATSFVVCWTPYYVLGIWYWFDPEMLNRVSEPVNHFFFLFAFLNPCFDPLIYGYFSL
Summary of the method: (§1)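 Bound label captured on 0.1% polyethyleneimine-treated GF/C filters, washed three times with PBS, counted. IC50 derived; identical set-up for every species.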

rat GnRH receptor = molecular target: T4, rat GnRH receptor (Rattus norvegicus, UniProt P30969); assay: Radioligand binding, 125I-GnRH-A, rat pituitary membranes; set-up: membranes were prepared from rat pituitary; from tissue; host or cells: rat pituitary
T4 sequence (P30969 1-327): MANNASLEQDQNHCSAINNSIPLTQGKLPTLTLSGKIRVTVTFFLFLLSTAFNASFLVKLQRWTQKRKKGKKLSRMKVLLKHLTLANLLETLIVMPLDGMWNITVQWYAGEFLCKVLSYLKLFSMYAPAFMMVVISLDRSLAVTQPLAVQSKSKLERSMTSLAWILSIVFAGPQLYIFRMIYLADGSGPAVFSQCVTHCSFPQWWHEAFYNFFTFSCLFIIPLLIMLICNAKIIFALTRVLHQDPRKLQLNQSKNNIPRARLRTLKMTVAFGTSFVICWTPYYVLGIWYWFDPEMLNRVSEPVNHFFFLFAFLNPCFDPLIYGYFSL
Summary of the method: as §1

[1] = Metabolism rate, pmol/min/mg at 1 μM, human; type: in vitro ADME; conditions: 1 μM compound
[2] = Metabolism rate, pmol/min/mg at 1 μM, rat male; type: in vitro ADME; conditions: 1 μM compound
[3] = Pharmacokinetic studies / bioavailability in rats; type: in vivo, rat; conditions: rat male
[4] = male, rat, plasma, po, 20 mg/kg, p.o. 20 mg/kg, vehicle per footnote (DMSO/cremophor/saline)

Cc1cc2c(cc1Cc1ccc(C(=O)NCc3ccc(F)cc3F)o1)C(C)(C)CCC2(C)C [Compound 52]
IC50 (human GnRH receptor; read-out: hGnRH IC50): 280 nM | IC50 (bovine GnRH receptor; read-out: bGnRH IC50): 2900 nM | IC50 (mouse GnRH receptor; read-out: mGnRH IC50): 660 nM | IC50 (rat GnRH receptor; read-out: rGnRH IC50): 270 nM

Cc1cc2c(cc1Cc1ccc(C(=O)NCc3cccc(F)c3)o1)C(C)(C)CCC2(C)C [Compound 53]
IC50 (human GnRH receptor; read-out: hGnRH IC50): 250 nM | IC50 (bovine GnRH receptor; read-out: bGnRH IC50): 2930 nM | IC50 (mouse GnRH receptor; read-out: mGnRH IC50): 630 nM | IC50 (rat GnRH receptor; read-out: rGnRH IC50): 270 nM

Cc1cc2c(cc1Cc1ccc(C(=O)Nc3cccc4ncccc34)o1)C(C)(C)CCC2(C)C [Compound 64]
IC50 (human GnRH receptor; read-out: hGnRH IC50): 125 nM | IC50 (bovine GnRH receptor; read-out: bGnRH IC50): 380 nM | IC50 (mouse GnRH receptor; read-out: mGnRH IC50): 34 nM | IC50 (rat GnRH receptor; read-out: rGnRH IC50): 60 nM

Cc1cc2c(cc1Cc1ccc(C(=O)NCc3cccc(CNc4nccc(N5CCOCC5)n4)c3)o1)C(C)(C)CCC2(C)C [Compound 150]
IC50 (human GnRH receptor; read-out: hGnRH IC50): 80 nM | IC50 (mouse GnRH receptor; read-out: mGnRH IC50): 13 nM | Human pmol/min/mg 1 μM [1]: 655 pmol/min/mg | Rat male pmol/min/mg 1 μM [2]: 3334 pmol/min/mg | IC50 (rat GnRH receptor; read-out: rGnRH IC50): 8 nM

Cc1cc2c(cc1Cc1ccc(C(=O)NCc3cccc(CNc4ncc(C)c(NCC5CCCO5)n4)c3)o1)C(C)(C)CCC2(C)C (stereo not shown) [Compound 151]
IC50 (human GnRH receptor; read-out: hGnRH IC50): 65 nM | IC50 (mouse GnRH receptor; read-out: mGnRH IC50): 5.2 nM | Human pmol/min/mg 1 μM [1]: 225 pmol/min/mg | Rat male pmol/min/mg 1 μM [2]: 3043 pmol/min/mg | IC50 (rat GnRH receptor; read-out: rGnRH IC50): 7.2 nM

COCCNc1nccc(NCc2cccc(CNC(=O)c3ccc(Cc4cc5c(cc4C)C(C)(C)CCC5(C)C)o3)c2)n1 [Compound 154]
IC50 (human GnRH receptor; read-out: hGnRH IC50): 150 nM | IC50 (mouse GnRH receptor; read-out: mGnRH IC50): 36 nM | Human pmol/min/mg 1 μM [1]: 241 pmol/min/mg | Rat male pmol/min/mg 1 μM [2]: 4481 pmol/min/mg | IC50 (rat GnRH receptor; read-out: rGnRH IC50): 22 nM

Cc1cc2c(cc1Cc1ccc(C(=O)NC[C@H]3CC[C@H](C(N)=O)CC3)o1)C(C)(C)CCC2(C)C [Compound 156]
IC50 (human GnRH receptor; read-out: hGnRH IC50): 24 nM | IC50 (mouse GnRH receptor; read-out: mGnRH IC50): 400 nM | Human pmol/min/mg 1 μM [1]: 867 pmol/min/mg | Rat male pmol/min/mg 1 μM [2]: 2995 pmol/min/mg | IC50 (rat GnRH receptor; read-out: rGnRH IC50): 270 nM

COc1cc(CO)cc(OC)c1NC(=O)c1ccc(Cc2cc3c(cc2C)C(C)(C)CCC3(C)C)o1 [Compound 159]
IC50 (human GnRH receptor; read-out: hGnRH IC50): 45 nM | IC50 (mouse GnRH receptor; read-out: mGnRH IC50): 16 nM | Human pmol/min/mg 1 μM [1]: 793 pmol/min/mg | Rat male pmol/min/mg 1 μM [2]: 6642 pmol/min/mg | IC50 (rat GnRH receptor; read-out: rGnRH IC50): 5 nM

COc1cc(OC)c(NC(=O)c2ccc(Cc3c(C)cc(C)cc3C)o2)c(OC)c1 [Compound 168]
IC50 (human GnRH receptor; read-out: hGnRH IC50): 230 nM | IC50 (mouse GnRH receptor; read-out: mGnRH IC50): 130 nM | half-life ([3]; male, rat, plasma, iv, 10 mg/kg): 1.8 h | Cmax [3, 4]: 300 nM | Tmax [3, 4]: 1 h | Fp.o. ([3]; p.o. 20 mg/kg, vehicle per footnote (DMSO/cremophor/saline)): 1% (20 mg/kg)^6 | Human pmol/min/mg 1 μM [1]: 407 pmol/min/mg | Rat male pmol/min/mg 1 μM [2]: 1087 pmol/min/mg | IC50 (rat GnRH receptor; read-out: rGnRH IC50): 130 nM

Cc1cc2c(cc1Cc1ccc(C(=O)NCc3cccc(CNc4ccnc(NC[C@@H]5CCCO5)n4)c3)o1)C(C)(C)CCC2(C)C [Compound 176]
IC50 (mouse GnRH receptor; read-out: mGnRH IC50): 4 nM | T1/2 [3]: 2.8 h | Human pmol/min/mg 1 μM [1]: 273 pmol/min/mg | Rat male pmol/min/mg 1 μM [2]: 2341 pmol/min/mg | IC50 (rat GnRH receptor; read-out: rGnRH IC50): 3 nM

CCNC(=O)[C@@H]1CCCN1C(=O)[C@H](CCCNC(=N)N)NC(=O)[C@H](CC(C)C)NC(=O)[C@@H](C)NC(=O)[C@H](Cc1ccc(O)cc1)NC(=O)[C@H](CO)NC(=O)[C@H](Cc1c[nH]c2ccccc12)NC(=O)[C@H](Cc1c[nH]cn1)NC(=O)[C@@H]1CCC(=O)N1 [GnRH-A, [des-Gly^10,D-Ala^6]GnRH ethylamide, reference compound]
IC50 (human GnRH receptor; means ± SE of at least three experiments performed in duplicate, read-out: Human IC50): 0.34 ± 0.06 nM | IC50 (bovine GnRH receptor; means ± SE of at least three experiments performed in duplicate, read-out: Bovine IC50): 0.3 ± 0.05 nM | IC50 (mouse GnRH receptor; means ± SE of at least three experiments performed in duplicate, read-out: Mouse IC50): 0.22 ± 0.03 nM | IC50 (rat GnRH receptor; means ± SE of at least three experiments performed in duplicate, read-out: Rat IC50): 0.49 ± 0.1 nM
